Measurements reported in patent US6723755B2, “Method of treating rosacea” (priority 2002, dated 2004).

Legend:
rosacea = assay: topical treatment of rosacea (related materials tested); assay type: in vivo, humans; details: topical application
skin = skin irritation on topical application; assay type: in vivo

Compound | usefulness in the present invention (treatment of rosacea) (rosacea) | irritation (reddening) of the skin to which it is applied (skin)
CC(=O)OC1CCCCC1 [cyclohexyl acetate] | not to be useful | –
CC1(O)CCCCC1 [1-methylcyclohexanol] | not to be useful | –
OC1CCCC1O (stereo not drawn) [1,2-cyclopentanediol] | do not work | –
C1=CCCCC1 [cyclohexene] | not to be useful | –
OCC1(CO)CC2C=CC1C2 (stereo not drawn) [5-norborene-2,2-dimethanol] | do not work | –
OCCCCC1CCCCC1 [4-cyclohexyl-1-butanol] | not to be useful | –
C1CCCCC1 [cyclohexane] | not to be useful | –
O=C(O)C1CCCCC1 [cyclohexyl carboxylic acid] | not to be useful | –
CC1CCC(C(C)C)C(O)C1 (stereo not drawn) [menthol] | not to be useful | can irritate (and thereby redden) the skin
CC1(C)[C@H]2C[C@H]1[C@@](C)(O)[C@@H](O)C2 [(1R,2R,3S,5S-(−))-pinanediol] | do not work | –
ClC1CCCCC1 [cyclohexyl chloride] | not to be useful | –
